Laboratory results from PMC11106742, “Computational Design of Cyclic Peptide Inhibitors of a Bacterial Membrane Lipoprotein Peptidase” (ACS Chemical Biology, 2024).
Converted amounts (≈) assume the structure as drawn. Numbered stars: 1 amine (or outer) side, 2 acyl side, 3 side chain; on linkers, the order of the positions; unused ones are H or OH. Bridge positions count the residues as written; N and C are the ends. Square brackets hold non-standard residues; d marks the D form. Peptide text beside a SMILES is read from it. * marks the point of attachment. X4 = CCCCCCCCN([C@H](C)C(=O)[*:2])[*:1]; Gly(N-dodecyl) = CCCCCCCCCCCCNCC(=O)O; X6 = CCCCC[C@H](C)N(CC(=O)[*:2])[*:1]; X7 = CCOCCOCCOCCN(CC(=O)[*:2])[*:1]; aIle = CC[C@@H](C)[C@H](N)C(=O)O; N(octyl)Gly = CCCCCCCCNCC(=O)O; aThr = C[C@H](O)[C@H](N)C(=O)O; NMeL = CN[C@@H](CC(C)C)C(=O)O; dOrn = NCCC[C@@H](N)C(=O)O; dDab = NCC[C@@H](N)C(=O)O; Heptanoyl = CCCCCCC(=O)*; Octanoyl = CCCCCCCC(=O)*; Orn = NCCC[C@H](N)C(=O)O; Dab = NCC[C@H](N)C(=O)O; Hexanoyl = CCCCCC(=O)*; Pentanoyl = CCCCC(=O)*; Propionyl = CCC(=O)*; Butyryl = CCCC(=O)*; βAla = NCCC(=O)O

Experiments:
E. coli = type: cell-based
Description: Initially, a library of six lipid amide analogues was synthesized via cyclization between the side-chain epsilon -NH2 of an N-terminal L-lysine residue and the C-terminus of an L-serine residue.
Each analogue was acylated with a simple linear lipid, ranging from C3 to C8 in length (Figure S1). To further probe the potential of the amide isostere, five additional analogues were synthesized in which the D- or L-stereoisomer of cationic amino acids diaminobutyric acid (Dab), ornithine (Orn), or Lys were used as the N-terminal cyclization partner. Each analogue was acylated with an octanoyl tail and the subsequent effects of ring size and/or stereochemistry, as well as lipid length, determined by assessing antimicrobial activity against E. coli. Peptides were also screened against S. aureus.
Unfortunately, each analogue was unable to […]

PaLspA [1] = target: T1, PaLspA (Pseudomonas aeruginosa, UniProt Q9HVM5); assay: Enzyme inhibition assay of rationally designed analogues with PaLspA; type: biochemical; conditions: peptide incubated with PaLspA
T1 construct: made in house
T1 sequence (Q9HVM5 1-169): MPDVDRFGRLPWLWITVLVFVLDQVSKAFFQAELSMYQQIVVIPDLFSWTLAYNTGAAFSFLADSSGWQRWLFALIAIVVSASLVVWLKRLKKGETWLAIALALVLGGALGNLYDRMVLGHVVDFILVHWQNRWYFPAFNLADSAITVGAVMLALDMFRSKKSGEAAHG
Procedure: Additionally, C3 – C5 (peptides S5 – S7) and C7-Gbm(NLys) (peptide S9) amide analogues were submitted for enzyme inhibition assays to determine if these cyclic amide isosteres could still inhibit the target enzyme, LspA. Each peptide was incubated with PaLspA and the observed reduction in enzyme activity reported. […]
found for peptides S5 and S9 (C3 and C7-Gbm(NLys). […]
Four linear globomycin analogues were synthesized to determine the necessity of the cyclic core.
The pentapeptide core of NMeLeu-Ile-Ser-Thr-Gly-OH was synthesized as both the natural allo-version and the cheaper non-allo version in which native residues allo-L-isoleucine and allo-L-threonine were replaced by their cheaper non-allo derivatives. Each linear pentapeptide was synthesized in both its acylated, octyl-derivative and non-acylated form and submitted for analysis of its PaLspA inhibitory activity. No PaLspA inhibition was observed, confirming the importance of globomycin’s cyclic core for antimicrobial activity.

PaLspA [2] = target: T1, PaLspA; assay: biochemical
Procedure: These analogues were tested for activity against PaLspA using an in vitro fluorescence resonance energy transfer (FRET) activity assay.[21] LspA inhibition was detected by a change in fluorescence upon cleavage of a FRET peptide substrate containing an N-terminal quencher moiety and a C-terminal fluorophore.
(A) Structures of G2a and G2d. (B) Results of the FRET dose–response assays. PaLspA concentration was 40 nM, FRET substrate concentration was 50 μM, and the concentration of inhibitors globomycin, G2a, and G2d ranged from 0–3,000 nM. (C) SDS-PAGE gels and quantitation of the PaLspA gel-shift dose–response assays. ppICP concentration was 12 μM, DOPG concentration was 600 μM, and Lgt concentration was 1.2 μM. The Lgt-catalyzed reaction was allowed to proceed for 60 min at 37 °C, after which inhibitors (0–1000 nM) were added. The PaLspA reaction was initiated by the addition of 100 nM enzyme. The LspA reaction was allowed to proceed for 30 min at 37 °C before being quenched with SDS-PAGE loading buffer (62.5 mM Tris/HCl pH 6.8, 2.5% (w/v) SDS, 0.002% (w/v) bromophenol blue, 0.5 M β-mercaptoethanol, 10% (v/v) glycerol). Quantitation of the gel-shift assays was performed using Image Lab, and data were plotted using GraphPad Prism.
Materials: All reagents were obtained from commercial sources and used without additional purification. All aqueous solutions were prepared using ultrapure laboratory grade water (deionized, filtered, and sterilized) obtained from an in-house ELGA water purification system. […]
Expression and purification of PaLspA, Lgt, EcLspA and ppICP: PaLspA, Lgt and pre-proICP (ppICP) were expressed and purified using previously published protocols (Vogely et al, 2016).[1] EcLspA was expressed and purified as described for PaLspA, with the following modification. The lysis buffer was 50 mM Hepes pH 7.5, 150 mM NaCl, 1 mM TCEP, 10 %(v/v) glycerol. Isolated membranes, containing EcLspA, were solubilized with 1 %(v/v) FC12 for 2 h at […]

P. aeruginosa 950 = assay: microbe, parasite or virus in culture; type: cell-based, Pseudomonas aeruginosa; conditions: 950
Procedure: (§1) MIC values were determined in cation-adjusted Mueller-Hinton broth using the broth microdilution method according to CLSI guidelines. Plates were incubated for 16 to 24 h at 37 °C.
(§2) Six biological replicates were performed across three different 2-fold dilution series, starting at concentration of 100 µg/ml, 80 µg/ml or 64 µg/ml. The lowest concentration of antimicrobial inhibiting growth was taken as the MIC. This was established by visual inspection of the medium after the incubation period with a lack of turbidity of the growth medium indicating no growth.[3] […]

E. coli ATCC25922 = assay: microbe, parasite or virus in culture; type: cell-based, Escherichia coli; conditions: ATCC25922
Procedure: as §1, §2

A. baumannii AB17978 = assay: microbe, parasite or virus in culture; type: cell-based, Acinetobacter baumannii; conditions: AB17978
Procedure: as §1, §2

A. baumannii AB5075 = assay: microbe, parasite or virus in culture; type: cell-based, Acinetobacter baumannii; conditions: AB5075
Procedure: as §1, §2

Row | SMILES | MIC (E. coli) [µg/mL] | also measured
1 | CCCCC(=O)N[C@H]1CCCCNC(=O)[C@H](CO)NC(=O)[C@H](CO)NC(=O)[C@H]([C@H](C)CC)NC(=O)[C@H](CC(C)C)N(C)C1=O [S7, C5-Globomycin(N-Lys)] (Pentanoyl-K[NMeL][aIle]SS; lactam 1-C) | > 200 | reduction in PaLspA enzyme activity (in words) (PaLspA [1]): no reduction in activity
2 | CCCCCCCCN1CC(=O)N(C)[C@@H](CC(C)C)C(=O)N[C@@H]([C@H](C)CC)C(=O)N[C@@H](CO)C(=O)N[C@@H]([C@H](C)O)C(=O)NCCC1=O [G2c] (cyclo([NMeL][aIle]S[aThr][βAla][N(octyl)Gly])) |  | IC50 (PaLspA [2]): 920 ± 70 nM
3 | CCCCC[C@H](C)N1CC(=O)N(C)[C@@H](CC(C)C)C(=O)N[C@@H]([C@H](C)CC)C(=O)N[C@@H](CO)C(=O)N[C@@H]([C@H](C)O)C(=O)NCCC1=O [G1a] (cyclo([NMeL][aIle]S[aThr][βAla][X6])) |  | IC50 (PaLspA [2]): 2940 ± 850 nM
4 | CCOCCOCCOCCN1CC(=O)N(C)[C@@H](CC(C)C)C(=O)N[C@@H]([C@H](C)CC)C(=O)N[C@@H](CO)C(=O)N[C@@H]([C@H](C)O)C(=O)NCCC1=O [G2e] (cyclo([NMeL][aIle]S[aThr][βAla][X7])) |  | IC50 (PaLspA [2]): 6160 ± 840 nM
5 | CCCCCCCC(=O)N(C)[C@@H](CC(C)C)C(=O)N[C@H](C(=O)N[C@@H](CO)C(=O)N[C@H](C(=O)NCC(=O)O)[C@H](C)O)[C@H](C)CC [S3, Octanoyl-Globomycin] (Octanoyl-[NMeL][aIle]S[aThr]G-OH) | > 200 | 
6 | CCCCCCCCN1C(=O)CCNC(=O)[C@H]([C@H](C)O)NC(=O)[C@H](CO)NC(=O)[C@H]([C@H](C)CC)NC(=O)[C@H](CC(C)C)N(C)C(=O)[C@H]1C [G2b] (cyclo([NMeL][aIle]S[aThr][βAla][X4])) |  | IC50 (PaLspA [2]): 430 ± 50 nM
7 | CCCCCCCCCCCCN1CC(=O)N(C)[C@@H](CC(C)C)C(=O)N[C@@H]([C@H](C)CC)C(=O)N[C@@H](CO)C(=O)N[C@@H]([C@H](C)O)C(=O)NCCC1=O [G2d] (cyclo([NMeL][aIle]S[aThr][βAla][Gly(N-dodecyl)])) |  | IC50 (PaLspA [2]): 157 ± 25 nM; MIC (P. aeruginosa 950): 32 µg/mL (≈ 44.1 µM); MIC (E. coli ATCC25922): 32 µg/mL (≈ 44.1 µM); MIC (A. baumannii AB17978): 16 µg/mL (≈ 22.1 µM); MIC (A. baumannii AB5075): 16 µg/mL (≈ 22.1 µM)
8 | CCCC(=O)N[C@H]1CCCCNC(=O)[C@H](CO)NC(=O)[C@H](CO)NC(=O)[C@H]([C@H](C)CC)NC(=O)[C@H](CC(C)C)N(C)C1=O [S6, C4-Globomycin(N-Lys)] (Butyryl-K[NMeL][aIle]SS; lactam 1-C) | > 200 | reduction in PaLspA enzyme activity (in words) (PaLspA [1]): no reduction in activity
9 | CCCCCCCC(=O)N[C@@H]1CCCNC(=O)[C@H](CO)NC(=O)[C@H](CO)NC(=O)[C@H]([C@H](C)CC)NC(=O)[C@H](CC(C)C)N(C)C1=O [S15, C8-Globomycin(N-D-Orn)] (Octanoyl-[dOrn][NMeL][aIle]SS; lactam 1-C) | > 200 | 
10 | CCCCCCCC(=O)N[C@H]1CCCNC(=O)[C@H](CO)NC(=O)[C@H](CO)NC(=O)[C@H]([C@H](C)CC)NC(=O)[C@H](CC(C)C)N(C)C1=O [S11, C8-Globomycin(N-Orn)] (Octanoyl-[Orn][NMeL][aIle]SS; lactam 1-C) | > 200 | 
11 | CCCCCCCC(=O)N[C@@H]1CCNC(=O)[C@H](CO)NC(=O)[C@H](CO)NC(=O)[C@H]([C@H](C)CC)NC(=O)[C@H](CC(C)C)N(C)C1=O [S16, C8-Globomycin(N-D-Dab)] (Octanoyl-[dDab][NMeL][aIle]SS; lactam 1-C) | > 200 | 
12 | CCCCCCC(=O)N[C@H]1CCCCNC(=O)[C@H](CO)NC(=O)[C@H](CO)NC(=O)[C@H]([C@H](C)CC)NC(=O)[C@H](CC(C)C)N(C)C1=O [S9, C7-Globomycin(N-Lys)] (Heptanoyl-K[NMeL][aIle]SS; lactam 1-C) | 100 (≈ 153 µM) | reduction in PaLspA enzyme activity (in words) (PaLspA [1]): moderate decrease in enzyme activity
13 | CC[C@@H](C)[C@H](NC(=O)[C@H](CC(C)C)NC)C(=O)N[C@@H](CO)C(=O)N[C@H](C(=O)NCC(=O)O)[C@H](C)O [S1, HN-Globomycin] (H-[NMeL][aIle]S[aThr]G-OH) | > 200 | 
14 | CCCCCCCC(=O)N[C@@H]1CCCCNC(=O)[C@H](CO)NC(=O)[C@H](CO)NC(=O)[C@H]([C@H](C)CC)NC(=O)[C@H](CC(C)C)N(C)C1=O [S14, C8-Globomycin(N-D-Lys)] (Octanoyl-[dK][NMeL][aIle]SS; lactam 1-C) | > 200 | 
15 | CCCCCCCC(=O)N[C@H]1CC=CCNC(=O)[C@H](CO)NC(=O)[C@H](CO)NC(=O)[C@H]([C@H](C)CC)NC(=O)[C@H](CC(C)C)N(C)C1=O [S13, C8-Globomycin(RCM)] | > 200 | antimicrobial activity (in words) (E. coli; against Gram-negative bacteria): void of antimicrobial activity
16 | CCCCCCCC(=O)N[C@H]1CCCCNC(=O)[C@H](CO)NC(=O)[C@H](CO)NC(=O)[C@H]([C@H](C)CC)NC(=O)[C@H](CC(C)C)N(C)C1=O [S10, C8-Globomycin(N-Lys)] (Octanoyl-K[NMeL][aIle]SS; lactam 1-C) | > 200 | 
17 | CCCCCCCC(=O)N[C@H]1CCNC(=O)[C@H](CO)NC(=O)[C@H](CO)NC(=O)[C@H]([C@H](C)CC)NC(=O)[C@H](CC(C)C)N(C)C1=O [S12, C8-Globomycin(N-Dab)] (Octanoyl-[Dab][NMeL][aIle]SS; lactam 1-C) | > 200 | 
18 | CCCCCCCC(=O)N(C)[C@@H](CC(C)C)C(=O)N[C@H](C(=O)N[C@@H](CO)C(=O)N[C@H](C(=O)NCC(=O)O)[C@@H](C)O)[C@@H](C)CC [S4, Non-alloOctanoyl-Globomycin] (Octanoyl-[NMeL]ISTG-OH) | > 200 | 
19 | CC[C@H](C)[C@H](NC(=O)[C@H](CC(C)C)NC)C(=O)N[C@@H](CO)C(=O)N[C@H](C(=O)NCC(=O)O)[C@@H](C)O [S2, Non-alloHN-Globomycin] (H-[NMeL]ISTG-OH) | > 200 | 
20 | CCC(=O)N[C@H]1CCCCNC(=O)[C@H](CO)NC(=O)[C@H](CO)NC(=O)[C@H]([C@H](C)CC)NC(=O)[C@H](CC(C)C)N(C)C1=O [S5, C3-Globomycin(N-Lys)] (Propionyl-K[NMeL][aIle]SS; lactam 1-C) | > 200 | reduction in PaLspA enzyme activity (in words) (PaLspA [1]): moderate decrease in enzyme activity
21 | CCCCCC(=O)N[C@H]1CCCCNC(=O)[C@H](CO)NC(=O)[C@H](CO)NC(=O)[C@H]([C@H](C)CC)NC(=O)[C@H](CC(C)C)N(C)C1=O [S8, C6-Globomycin(N-Lys)] (Hexanoyl-K[NMeL][aIle]SS; lactam 1-C) | > 200 | 
